Experimental data: PMC8632880, “Mitochondrial proteome of mouse oocytes and cisplatin-induced shifts in protein profile” (Acta Pharmacologica Sinica, 2021)

Molecular target: T1, GST-HS90A (Mus musculus, UniProt P07901)
T1 construct: gene Hsp90aa1; mouse Hsp90aa1 coding region in pGEX-4T-1, N-terminal GST fusion (tag kept), expressed in E. coli, purified, RED-NHS labelled
Test: microscale thermophoresis, RED-NHS labelled protein
Format: binding

Question: With `[NH2][Pt]([NH2])([Cl])[Cl]` [cisplatin] as the molecule, how does the Kd read?
Answer: 5.47 ± 0.2 µM
